Article PMC5502055, “Phase II study of lanreotide autogel in Japanese patients with unresectable or metastatic well-differentiated neuroendocrine tumors” (Investigational New Drugs, 2017)

Legend:
[1] = system: Japanese patients with grade (G) 1/G2 NET; test: Quality of life, EORTC QLQ-C30 (ver. 3.0); type: in vivo, human; settings: EORTC QLQ-C30, individual terms
Source text: The primary endpoint was the clinical benefit rate (CBR) at 24 weeks after the first injection, which served to indicate and confirm the anti-tumor effects of lanreotide. The CBR was defined as the percentage of patients in the analysis set who achieved a complete response or partial response (PR) as the best overall response, or those who maintained stable disease (SD) over 24 weeks after the first injection by central review. Secondary efficacy endpoints were progression-free survival (PFS), overall survival (OS), objective response rate (ORR), and the percent change from baseline in the sum of the diameters of target lesion from baseline. […] Regarding tumor lesion imaging ≥4 weeks before the baseline, the investigators evaluated computed tomography (CT) or magnetic resonance imaging (MRI) data based on the RECIST (ver. 1.1). To evaluate anti-tumor effects after baseline, CT or MRI data were evaluated centrally by an independent third party based on the RECIST (ver. 1.1). During the study period, images of each patient were determined using the same method (CT or MRI), according to the standardized procedure at each site. […]
In the primary analysis, the CBR point estimate at 24 weeks after the first injection and an exact F distribution-based 95% confidence interval (CI) were calculated. […] The ORRs at 24, 48, and 60 weeks after the first injection were also calculated. […]

[2] = system: non-functional enteropancreatic NET; settings: CLARINET study, cited from earlier work
Source text: Tumors occurring in nerves or endocrine cells anywhere in the body can be classified as neuroendocrine neoplasm (NEN). NEN is classified into poorly-differentiated neuroendocrine carcinoma and well-differentiated neuroendocrine tumor (NET). NET is a rare disease and tends to proliferate slowly. According to an epidemiological survey conducted in Japan in 2010, the incidence of new pancreatic and gastrointestinal NET was 4.78 per 100,000 people (estimated number of patients treated: 11,467). The incidences of NET other than pancreatic and gastrointestinal NET remain unknown in Japan, wher ... || Furthermore, in the CLARINET study, a median PFS was not reached at 96 weeks (24 months), in contrast to the median PFS of 36.3 weeks (based on the RECIST ver. 1.1) in the present study. This difference is attributed to differences in baseline disease characteristics of the patient and tumor characteristics. The percentages of patients with PD at baseline and prior treatment for NET were 39.3% (11/28 patients) and 78.6% (22/28 patients), respectively, in the present, and only 4.0% (4/101 patients) and 15.8% (16/101 patients), respectively, in the CLARINET study. The current Japanese stud ...

serum CgA = test: Serum chromogranin A (CgA) concentration; type: in vivo, human; settings: 15 of 17 patients with baseline CgA >100 ng/mL
Experimental: Serum CgA, serum anti-lanreotide antibody, and serum lanreotide testing methods are described in the Electronic Supplementary Material.
In the primary analysis, the CBR point estimate at 24 weeks after the first injection and an exact F distribution-based 95% confidence interval (CI) were calculated. The CBR was selected as the primary endpoint, because maintaining SD was deemed beneficial and clinically meaningful for NET patients. In the secondary analysis, Kaplan–Meier curves of PFS and OS were prepared, and median values and 95% CIs were calculated. The ORRs at 24, 48, and 60 weeks after the first injection were also calculated. Regarding percent changes from baseline in the sum of the diameters of target lesion, descriptive statistics were calculated for each evaluation time point, and waterfall plots of the best response and last evaluation time points were prepared. Regarding the serum CgA concentration and QOL evaluation, descriptive statistics of changes from baseline were calculated for each time point. For all endpoints, the starting point of evaluation was set as the baseline for the phase II study.
Serum chromogranin A concentrations were determined centrally every 12 weeks for the 48-weeks period following the start of administration, and every 24 weeks thereafter (SRL Medisearch Inc.,Tokyo,Japan, Kit Cisbio).

For `CC(C)[C@@H]1NC(=O)[C@H](CCCCN)NC(=O)[C@@H](Cc2c[nH]c3ccccc23)NC(=O)[C@H](Cc2ccc(O)cc2)NC(=O)[C@@H](NC(=O)[C@H](N)Cc2ccc3ccccc3c2)CSSC[C@@H](C(=O)N[C@H](C(N)=O)[C@@H](C)O)NC1=O` [lanreotide], the “QOL transformed scores versus baseline” value [1] is given as “did not differ significantly”, the “median PFS” value ([2]; up to 96 weeks (24 months), placebo 18.0 months) is given as “not reached” and the “hazard ratio for PFS vs placebo” value ([2]; 95% CI 0.30-0.73, P < 0.001) is given as 0.47. The “patients with serum CgA decrease of ≥50% by last examination relative to baseline” value (serum CgA) was 88.2%.
